US10875855B2 (priority 2011, dated 2020)
pEC50, pIC50: −log10 of the molar value. Read-outs that look alike come from different tables or passages of the source.

Assays:
[1] = test system: influenza A virus (A/PR/8/34); test: MDCK cytopathic effect (CPE) cell protection assay, ATP detection; format: cell-based
[2] = test system: influenza A virus (A/PR/8/34); test: microbe, parasite or virus in culture; format: cell-based
[3] = Influenza A virus, PR/8, MDCK, 72 h, Table 1, MDCK cells, A/PR/8/34, 72 hours, 50% cell protection, mean all, class symbol, read-out: MDCK IC50
[4] = Influenza A virus, PR/8, Table 1, mean all, class symbol, read-out: bDNA EC99
[5] = Influenza A virus, PR/8, Table 1, viral RNA 50% of control wells, mean all, class symbol, read-out: bDNA EC50
[6] = Table 1, mean all, class symbol
[7] = Table 1, MDCK cells, A/PR/8/34, 72 hours, 50% cell protection, mean all, class symbol, read-out: MDCK IC50
[8] = Table 1, viral RNA 50% of control wells, mean all, class symbol, read-out: bDNA EC50

Row | SMILES | pIC50 [1, 3] | EC99 [2, 4] [µM] | pEC50 [2, 5] | also measured
1 | CC1(C(CC(=O)O)Nc2nc(-c3c[nH]c4ncc(Cl)cc34)ncc2F)CCCCC1 (racemic) [Compound 83, (+/−)-3-(2-(5-Chloro-1H-pyrrolo[2,3-b]pyridin-3-yl)-5-fluoropyrimidin-4-ylamino)-3-(1-methylcyclohexyl)propanoic acid] | 5.48 to 6.52 | 0.3 to 3.3 | > 6.52 | –
2 | CCC(C)(C)C(CC(=O)O)Nc1nc(-c2c[nH]c3ncc(F)cc23)ncc1F (centres unmarked) [Compound 16, 3-((5-fluoro-2-(5-fluoro-1H-pyrrolo[2,3-b]pyridin-3-yl)pyrimidin-4-yl)amino)-4,4-dimethylhexanoic acid] | > 6.52 | – | > 6.52 | bDNA EC99 (uM) [2, 6]: A (EC99 (mean all)<0.3 μM)
3 | CC(C)(C)N(CC(=O)O)Nc1nc(-c2c[nH]c3ncc(C(F)(F)F)cc23)ncc1F [Compound 54, 2-(1-(tert-butyl)-2-(5-fluoro-2-(5-(trifluoromethyl)-1H-pyrrolo[2,3-b]pyridin-3-yl)pyrimidin-4-yl)hydrazinyl)acetic acid] | > 6.52 | 0.3 to 3.3 | > 6.52 | –
4 | CC(C)(C)[C@@H](CCP(=O)(O)O)Nc1nc(-c2c[nH]c3ncc(F)cc23)ncc1F [Compound 69, (R)-(3-((5-fluoro-2-(5-fluoro-1H-pyrrolo[2,3-b]pyridin-3-yl)pyrimidin-4-yl)amino)-4,4-dimethylpentyl)phosphonic acid] | 5.48 to 6.52 | > 3.3 | 5.48 to 6.52 | pIC50 ([1]; Influenza A virus, PR/8, MDCK, exemplary data, MDCK cell protection, read-out: IC50): 5.64; pEC50 ([2]; Influenza A virus, PR/8, exemplary data, bDNA, read-out: EC50): 6.10; EC99 ([2]; exemplary data, bDNA): 8.4 µM
5 | CC(C)(C)[C@@H](CC(=O)O)Nc1nc(-c2n[nH]c3ncc(Cl)cc23)ncc1F [Compound 97, (R)-3-((2-(5-chloro-1H-pyrazolo[3,4-b]pyridin-3-yl)-5-fluoropyrimidin-4-yl)amino)-4,4-dimethylpentanoic acid] | > 6.52 | < 0.3 | > 6.52 | –
6 | CC(C)(C)[C@@H](CS(C)(=O)=O)Nc1nc(-c2c[nH]c3ncc(F)cc23)ncc1F [Compound 46, (S)—N-(3,3-dimethyl-1-(methylsulfonyl)butan-2-yl)-5-fluoro-2-(5-fluoro-1H-pyrrolo[2,3-b]pyridin-3-yl)pyrimidin-4-amine] | > 6.52 | > 3.3 | 5.48 to 6.52 | –
7 | CC1(C(CC(=O)O)Nc2nc(-c3c[nH]c4ncc(F)cc34)ncc2F)CCC1 (centres unmarked) [Compound 88, 3-((5-fluoro-2-(5-fluoro-1H-pyrrolo[2,3-b]pyridin-3-yl)pyrimidin-4-yl)amino)-3-(1-methylcyclobutyl)propanoic acid] | – | – | – | pIC50 [1, 7]: > 6.52; bDNA EC99 (uM) [2, 6]: B (0.3 μM≤EC99 (mean all)≤3.3 μM); pEC50 [2, 8]: > 6.52
8 | CC(CF)(CF)C(CC(=O)O)Nc1nc(-c2c[nH]c3ncc(F)cc23)ncc1F (racemic) [Compound 84, (+/−)-5-Fluoro-3-((5-fluoro-2-(5-fluoro-1H-pyrrolo[2,3-b]pyridin-3-yl)pyrimidin-4-yl)amino)-4-(fluoromethyl)-4-methylpentanoic acid] | 5.48 to 6.52 | > 3.3 | 5.48 to 6.52 | –
9 | CCCNS(=O)(=O)C[C@@H](Nc1nc(-c2c[nH]c3ncc(F)cc23)ncc1F)C(C)(C)C [Compound 34, (S)-2-(5-Fluoro-2-(5-fluoro-1H-pyrrolo[2,3-b]pyridin-3-yl)pyrimidin-4-ylamino)-3,3-dimethyl-N-propylbutane-1-sulfonamide] | > 6.52 | 0.3 to 3.3 | > 6.52 | –
10 | CC(C)(C)[C@@H](CO)Nc1nc(-c2c[nH]c3ncc(F)cc23)c(C#N)cc1F [Compound 24, (S)-5-fluoro-2-(5-fluoro-1H-pyrrolo[2,3-b]pyridin-3-yl)-6-((1-hydroxy-3,3-dimethylbutan-2-yl)amino)nicotinonitrile] | > 6.52 | < 0.3 | > 6.52 | –
11 | CC(C)(C)C(Cc1nn[nH]n1)Nc1nc(-c2c[nH]c3ncc(F)cc23)ncc1F (racemic) [Compound 55, (+/−)-N-(3,3-dimethyl-1-(2H-tetrazol-5-yl)butan-2-yl)-5-fluoro-2-(5-fluoro-1H-pyrrolo[2,3-b]pyridin-3-yl)pyrimidin-4-amine] | > 6.52 | 0.3 to 3.3 | > 6.52 | –
12 | C[C@@H](CC(=O)O)Nc1nc(-c2c[nH]c3ncc(Cl)cc23)ncc1F [Compound C4, reference compound] | – | – | – | IC50 ([1]; Influenza A virus, PR/8, MDCK, Table 2, class symbol in brackets, read-out: MDCK cell IC50 (uM), class): 0.3 to 3.3 µM; pIC50 ([1]; Influenza A virus, PR/8, MDCK, Table 2, comparison compounds of WO2005/095400, mean value, read-out: MDCK cell IC50): 5.63; EC50 ([2]; Influenza A virus, PR/8, Table 2, class symbol in brackets, read-out: bDNA EC50 (uM), class): > 3.3 µM; pEC50 ([2]; Influenza A virus, PR/8, Table 2, comparison compounds of WO2005/095400, mean value, read-out: bDNA EC50): 5.19; bDNA EC99 (uM), class ([2]; Table 2, class symbol in brackets): C (EC99 (mean all)>3.3 μM); bDNA EC99 ([2]; Table 2, comparison compounds of WO2005/095400, mean value): > 16.7 µM
13 | CC(C)(C)[C@@H](/C=C/C(=O)O)Nc1nc(-c2c[nH]c3ncc(F)cc23)ncc1F [Compound 59, (R,E)-4-((5-fluoro-2-(5-fluoro-1H-pyrrolo[2,3-b]pyridin-3-yl)pyrimidin-4-yl)amino)-5,5-dimethylhex-2-enoic acid] | > 6.52 | 0.3 to 3.3 | > 6.52 | –
14 | CC(C)(C)NS(=O)(=O)C[C@@H](Nc1nc(-c2c[nH]c3ncc(F)cc23)ncc1F)C(C)(C)C [Compound 40] | > 6.52 | 0.3 to 3.3 | > 6.52 | –
15 | CC(O)C[C@@H](Nc1nc(-c2c[nH]c3ncc(F)cc23)ncc1F)C(C)(C)C (stereo partly drawn) [Compound 73, (4R)-4-((5-Fluoro-2-(5-fluoro-1H-pyrrolo[2,3-b]pyridin-3-yl)pyrimidin-4-yl)amino)-5,5-dimethylhexan-2-ol] | < 5.48 | – | 5.48 to 6.52 | –
16 | CCOC(=O)CC(Nc1nc(-c2c[nH]c3ncc(Cl)cc23)ncc1F)C1(C)CCCCC1 (centres unmarked) [Compound 82] | < 5.48 | > 3.3 | < 5.48 | –
17 | CC1([C@@H](CC(=O)O)Nc2nc(-c3c[nH]c4ncc(F)cc34)ncc2F)CCC1 [Compound 87, 3-((5-fluoro-2-(5-fluoro-1H-pyrrolo[2,3-b]pyridin-3-yl)pyrimidin-4-yl)amino)-3-(1-methylcyclobutyl)propanoic acid] | > 6.52 | < 0.3 | > 6.52 | –
18 | CC1([C@@H](CC(=O)O)Nc2nc(-c3c[nH]c4ncc(F)cc34)ncc2F)CC1 [Compound 92] | – | – | – | pIC50 [1, 7]: 5.48 to 6.52; bDNA EC99 (uM) [2, 6]: C (EC99 (mean all)>3.3 μM); pEC50 [2, 8]: 5.48 to 6.52
19 | CC1([C@@H](CC(=O)O)Nc2nc(-c3c[nH]c4ncc(F)cc34)c(C#N)cc2F)CCCC1 [Compound 42, (R)-3-(5-cyano-3-fluoro-6-(5-fluoro-1H-pyrrolo[2,3-b]pyridin-3-yl)pyridin-2-ylamino)-3-(1-methylcyclopentyl)propanoic acid] | > 6.52 | < 0.3 | > 6.52 | –
20 | Cc1cnc2[nH]cc(-c3ncc(F)c(N[C@H](CC(=O)O)C(C)(C)C)n3)c2c1 [Compound 90, (R)-3-((5-fluoro-2-(5-methyl-1H-pyrrolo[2,3-b]pyridin-3-yl)pyrimidin-4-yl)amino)-4,4-dimethylpentanoic acid] | > 6.52 | 0.3 to 3.3 | > 6.52 | –
21 | CC(C)(C)N(CC(=O)O)Nc1nc(-c2c[nH]c3ncc(F)cc23)ncc1F [Compound 53, 2-(1-(tert-butyl)-2-(5-fluoro-2-(5-fluoro-1H-pyrrolo[2,3-b]pyridin-3-yl)pyrimidin-4-yl)hydrazinyl)acetic acid] | > 6.52 | 0.3 to 3.3 | > 6.52 | –
22 | CC(C)(C)C(CCO)Nc1nc(-c2c[nH]c3ncc(F)cc23)c(C#N)cc1F (racemic) [Compound 41, (+/−)-5-fluoro-2-(5-fluoro-1H-pyrrolo[2,3-b]pyridin-3-yl)-6-(1-hydroxy-4,4-dimethylpentan-3-ylamino)pyridine-3-carbonitrile] | > 6.52 | 0.3 to 3.3 | > 6.52 | –
23 | CC(C)(C)[C@@H](CC(=O)O)Nc1nc(-c2n[nH]c3ncc(F)cc23)ncc1F [Compound 5, (R)-3-((5-fluoro-2-(5-fluoro-1H-pyrazolo[3,4-b]pyridin-3-yl)pyrimidin-4-yl)amino)-4,4-dimethylpentanoic acid] | > 6.52 | < 0.3 | > 6.52 | –
24 | COCCNS(=O)(=O)C[C@@H](Nc1nc(-c2c[nH]c3ncc(F)cc23)ncc1F)C(C)(C)C [Compound 35, (S)-2-(5-Fluoro-2-(5-fluoro-1H-pyrrolo[2,3-b]pyridin-3-yl)pyrimidin-4-ylamino)-N-(2-methoxyethyl)-3,3-dimethylbutane-1-sulfonamide] | > 6.52 | 0.3 to 3.3 | > 6.52 | –
25 | CNS(=O)(=O)C[C@H](Nc1nc(-c2c[nH]c3ncc(F)cc23)ncc1F)C(C)(C)C [Compound 38, (R)-2-((5-fluoro-2-(5-fluoro-1H-pyrrolo[2,3-b]pyridin-3-yl)pyrimidin-4-yl)amino)-N,3,3-trimethylbutane-1-sulfonamide] | < 5.48 | > 3.3 | < 5.48 | –
26 | CC1([C@@H](CC(=O)O)Nc2nc(-c3c[nH]c4ncc(F)cc34)ncc2F)CCCC1 [Compound 14] | > 6.52 | < 0.3 | > 6.52 | –
27 | CC(C)(C)[C@@H](CS(=O)(=O)CC(=O)O)Nc1nc(-c2c[nH]c3ncc(F)cc23)ncc1F [Compound 60, (S)-2-(2-(5-fluoro-2-(5-fluoro-1H-pyrrolo[2,3-b]pyridin-3-yl)pyrimidin-4-ylamino)-3,3-dimethylbutylsulfonyl)ethanoic acid] | > 6.52 | > 3.3 | 5.48 to 6.52 | –
